Patent US20230219965A1 (KSQ Therapeutics, Inc., priority 2020, published 2023)
Where two headings read alike, the source gives them in different places.

Experiments:
USP1/UAF1 enzyme = USP1/UAF1 enzyme (Homo sapiens, UniProt O94782); assay: USP1/UAF1 deubiquitination assay (ubiquitin-rhodamine 110 substrate); type: biochemical; conditions: read-out: USP1 IC50 (Ub-Rho)
In short: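 Cleavage of 150 nM ubiquitin-rhodamine 110 by 0.05 nM USP1/UAF1 was followed as fluorescence (Ex480/Em540, kinetic, 30 min) in Tris-HCl pH 7.8 buffer with EDTA, BSA, DTT and Tween-20. Compounds, top 10 μM, were preincubated with enzyme 10 min; % inhibition against no-enzyme and DMSO wells gave four-parameter IC50s.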

[1] = Liver microsomal metabolic stability, human liver microsomes (HLM); conditions: human, liver microsomes
Experimental: Samples were prepared by adding 222.5 μL of a master solution (100 mM phosphate buffer and 1 mg/mL liver microsomes (HLM or RLM)) and 25 μL of a 10 mM NADPH solution to incubation plates, which were then warmed for 10 min. Each compound was separately dissolved in DMSO to prepare 10 mM stock solutions, which were then diluted to 100 μM with acetonitrile. A reaction was started by adding 2.5 μL of the 100 μM solution of each compound to separate incubation plates such that the final concentration of for each compound in each plate was 1 μM.
25 μL aliquots of each sample were taken at 0.5, 5, 10, 15, 20 and 30 minutes, and the reaction was stopped by adding 5 volumes of cold acetonitrile with IS (100 nM alprazolam, 200 nM caffeine and 100 nM tolbutamide). The samples were then centrifuged at 3,220 G for 30 minutes, and 100 μL of the supernatant fluid was mixed with 100 μL of ultra-pure H2O.
The samples were then analyzed by LC-MS/MS. Peak areas were determined from extracted ion chromatograms. Slope values (k) were determined by linear regression of the natural logarithm of the remaining percentage of the compound vs. incubation time curve. The in vitro half-life (in vitro t1/2) was determined from the slope value using the following equation:

[2] = system: Ub-PCNA levels in the nucleus of ES2 cells (USP1 activity); assay: ES2 Ub-PCNA immunofluorescence (IF) assay; type: cell-based; conditions: Homo sapiens, ES-2; ES2 cells, 3 hours, Ub-PCNA immunofluorescence; read-out: USP1 IC50 (Ub-PCNA)
Experimental: USP1 is a deubiquitinating enzyme that removes ubiquitin from mono-ubiquitinated Proliferating Cell Nuclear Antigen (Ub-PCNA). The levels of Ub-PCNA in the nucleus of cells can be used to assess the activity of USP1. An immunofluorescence assay can be established to monitor Ub-PCNA levels in the ovarian cancer cell line, ES2.
An assay can be performed by first plating 5000 ES2 cells per well in black 96 well plates (Corning #3904) and then incubating overnight at 37° C. and 5% CO2. Compounds, resuspended in DMSO, can be added to the cells, to a final DMSO concentration of 0.3%. Plates can be incubated at 37° C. and 5% CO2 for 3 hours.
Cells can be then fixed and stained by first removing the media from each plate and fixing the cells with −20° C. methanol for 5 minutes at room temperature. Fixation plates can be washed with Tris buffered saline with tween (Boston Bioproducts #IBB-855) 5 times for 5 minutes each. Plates can be blocked for 1 hour with 50 μl of Odyssey blocking buffer (Licor #327-50000) at room temperature with rocking. Block can be removed from all wells and 50 μl of primary antibody was added to each well. Ub-PCNA ab (Cell Signaling Technology #13439) can be diluted at 1:400 in Odyssey blocking buffer. Plates can be sealed and incubated overnight at 4° C. Primary antibodies can be removed from the plates and plates can be washed with Tris buffered saline with tween 5 times for 5 minutes. Plates can be stained for 1 hour at room temperature with rocking with 50 μl of secondary antibodies diluted 1:10,000 in Odyssey blocking buffer at room temperature (anti-rabbit Alexa 488). Antibodies can be removed from the plates and plates can be washed with Tris buffered saline with tween 3 times for 5 minutes. Plates can be washed once with DAPI (Chemometec #910-3012) stain diluted 1:5000 (Stock solution of 500 μg/ml) in tris buffered saline with tween for 5 minutes. DAPI stain can be removed and plates can be washed one additional time for 5 minutes with tris buffered saline with tween. Wash can be removed from the plate and 100 μl tris buffered saline with tween can be added back to all wells, Plates can be sealed with Foil seals or black plate seals and plates can be stored at 4° C. until they can be imaged.
Imaging of the plates can be performed by first locating the nuclei using the DAPI stain. A mask can be created by drawing a circle slightly smaller than each nucleus. Ub-PCNA intensities can be measured for each individual nucleus counted. A histogram of all Ub-PCNA nuclear intensities measured in untreated wells can be generated and a 95% cutoff can be established. This 95% cutoff can be used to determine the number of Positive cells that have Ub-PCNA values higher than the 95% cutoff. The number of positive cells can be expressed as a percentage by dividing by the total number of cells in the well. This percent positive value can be used to graph all data and to determine AC50 values.
USP1 is a deubiquitinating enzyme that removes ubiquitin from mono-ubiquitinated
Proliferating Cell Nuclear Antigen (Ub-PCNA). The levels of Ub-PCNA in the nucleus of cells was used to assess the activity of USP1. An immunofluorescence assay was established to monitor Ub-PCNA levels in the ovarian cancer cell line, ES2.
This assay was performed by first plating 5000 ES2 cells per well in black 96 well plates (Corning #3904) and then incubated overnight at 37° C. and 5% CO2. Compounds, resuspended in DMSO, were added to the cells, to a final DMSO concentration of 0.3%. Plates were incubated at 37° C. and 5% CO2 for 3 hours.
Cells were then fixed and stained by first removing the media from each plate and fixing the cells with −20° C. methanol for 5 minutes at room temperature. Following fixation plates were washed with Tris buffered saline with tween (Boston Bioproducts ABB-855) 5 times for 5 minutes each. Plates were blocked for 1 hour with 50μ.1 of Odyssey blocking buffer (Licor #327-50000) at room temperature with rocking. […]

[3] = ADME solubility determination in PBS at pH 2.0 and pH 7.4; type: physicochemical; conditions: phosphate buffered saline, 25 °C, thermodynamic from solid
In short: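 Solubility was read by LC-MS/MS on centrifuged supernatants, calibrated to a known-concentration standard and corrected for dilution. Compound, dried down from 10 mM DMSO stock, was equilibrated 24 h at 25° C with shaking in PBS at pH 2.0 or pH 7.4.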

[4] = Liver microsomal metabolic stability, rat liver microsomes (RLM); conditions: rat, liver microsomes, t1/2 (min) in RLM, 1 μM compound, 1 mg/mL microsomes, NADPH
[5] = pH 2, aqueous buffer, PBS pH 2.0, 25° C., read-out: Solubility at pH 2.0
[6] = pH 7.4, aqueous buffer, PBS pH 7.4, 25° C., read-out: Solubility at pH 7.4

Chain of USP1/UAF1 enzyme (O94782 whole entry): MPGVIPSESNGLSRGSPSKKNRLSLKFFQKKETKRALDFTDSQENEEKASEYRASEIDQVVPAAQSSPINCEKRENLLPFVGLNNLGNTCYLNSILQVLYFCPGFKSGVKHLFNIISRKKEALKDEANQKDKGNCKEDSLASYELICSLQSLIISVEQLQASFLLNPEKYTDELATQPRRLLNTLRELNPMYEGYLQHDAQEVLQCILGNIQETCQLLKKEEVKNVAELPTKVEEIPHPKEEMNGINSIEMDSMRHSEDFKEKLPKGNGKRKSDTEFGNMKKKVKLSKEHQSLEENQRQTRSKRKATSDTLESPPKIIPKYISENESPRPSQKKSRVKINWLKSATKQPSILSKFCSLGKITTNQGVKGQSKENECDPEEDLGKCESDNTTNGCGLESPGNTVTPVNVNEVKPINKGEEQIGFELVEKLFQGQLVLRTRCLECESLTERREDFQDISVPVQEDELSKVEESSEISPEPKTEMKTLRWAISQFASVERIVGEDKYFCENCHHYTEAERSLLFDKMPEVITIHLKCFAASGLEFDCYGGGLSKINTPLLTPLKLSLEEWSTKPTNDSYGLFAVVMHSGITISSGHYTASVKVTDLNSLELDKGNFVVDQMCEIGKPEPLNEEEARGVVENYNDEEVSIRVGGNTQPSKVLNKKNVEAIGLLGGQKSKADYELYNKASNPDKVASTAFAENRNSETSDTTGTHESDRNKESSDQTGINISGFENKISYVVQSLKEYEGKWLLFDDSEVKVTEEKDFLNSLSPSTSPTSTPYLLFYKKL
Chain of USP1/UAF1 enzyme (Q8TAF3 whole entry partner): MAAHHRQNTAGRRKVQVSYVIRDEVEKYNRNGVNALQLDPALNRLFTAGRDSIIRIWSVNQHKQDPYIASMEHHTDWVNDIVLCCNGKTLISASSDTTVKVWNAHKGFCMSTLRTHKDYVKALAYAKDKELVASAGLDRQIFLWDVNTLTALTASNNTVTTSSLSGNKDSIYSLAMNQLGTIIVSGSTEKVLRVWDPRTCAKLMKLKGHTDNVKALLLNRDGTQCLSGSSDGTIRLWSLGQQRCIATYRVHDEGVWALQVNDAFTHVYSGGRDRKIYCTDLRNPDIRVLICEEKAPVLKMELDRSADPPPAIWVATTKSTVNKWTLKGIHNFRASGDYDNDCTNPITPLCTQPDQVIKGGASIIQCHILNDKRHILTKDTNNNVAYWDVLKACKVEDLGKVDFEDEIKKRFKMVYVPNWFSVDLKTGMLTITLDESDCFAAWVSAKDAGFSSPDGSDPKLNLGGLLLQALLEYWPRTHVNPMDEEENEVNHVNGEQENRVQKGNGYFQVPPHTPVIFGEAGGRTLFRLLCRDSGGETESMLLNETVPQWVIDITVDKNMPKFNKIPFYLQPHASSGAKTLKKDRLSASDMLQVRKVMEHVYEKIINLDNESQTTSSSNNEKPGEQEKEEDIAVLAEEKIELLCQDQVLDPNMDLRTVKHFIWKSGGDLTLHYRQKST

SMILES | IC50 (USP1/UAF1 enzyme) | half-life at 1 μM [1] | IC50 [2] | solubility at 24 h [3, 5] | solubility at 24 h [3, 6] | half-life at 1 μM [4]
COc1ncnc(C2CC2)c1-c1cc2n(n1)CCCN2Cc1ccc(-c2nc(C(F)(F)F)cn2C)cc1 [Example 24, 2-(4-cyclopropyl-6-methoxypyrimidin-5-yl)-4-(4-(1-methyl-4-(trifluoromethyl)-1H-imidazol-2-yl)benzyl)-4,5,6,7-tetrahydropyrazolo[1,5-α]pyrimidine] | < 0.1 µM | < 25 min | < 0.1 µM | ≥ 10 µM | ≥ 10 µM | < 25 min
COc1ncnc(C2CC2)c1-c1cc2n(n1)CCCN2Cc1ccc(-n2nc(C(F)(F)F)cc2C)cc1 [Example 27] | < 0.1 µM | < 25 min | < 0.1 µM | ≥ 10 µM | < 10 µM | < 25 min
CCn1cc(C(F)(F)F)nc1-c1ccc(CN2CC3(CC3)Cn3nc(-c4c(OC)ncnc4C4CC4)cc32)cc1F [Example 30] | < 0.1 µM | < 25 min | < 0.1 µM | ≥ 10 µM | < 10 µM | < 25 min
COc1ncnc(C2CC2)c1-c1nn2c(c1C)N(Cc1ccc(-c3nc(C(F)(F)F)cn3C)cc1)C(=O)CC2 [Example 35, 2-(4-cyclopropyl-6-methoxypyrimidin-5-yl)-3-methyl-4-(4-(1-methyl-4-(trifluoromethyl)-1H-imidazol-2-yl)benzyl)-6,7-dihydropyrazolo[1,5-α]pyrimidin-5(4H)-one] | 0.1 to 0.5 µM | < 25 min | > 0.5 µM | < 10 µM | < 10 µM | > 25 min
Cc1cnn(C(C)C)c1-c1nc2n(n1)CCC(=O)N2Cc1ccc(-c2nc(C(F)(F)F)cn2C(C)C)cc1 [Example 38] | < 0.1 µM | < 25 min | < 0.1 µM | < 10 µM | < 10 µM | < 25 min
CC(C)n1cc(C(F)(F)F)nc1-c1ccc(CN2C(=O)CCn3nc(-c4c(Cl)cnn4C(C)C)nc32)cc1F [Example 40] | < 0.1 µM | > 25 min | 0.1 to 0.5 µM | < 10 µM | < 10 µM | > 25 min
CC(C)n1cc(C(F)(F)F)nc1-c1ccc(CN2C(=O)CCn3nc(-c4c(Cl)cnn4C(C)C)nc32)cc1 [Example 41] | < 0.1 µM | > 25 min | < 0.1 µM | < 10 µM | < 10 µM | > 25 min
CCn1cc(C(F)(F)F)nc1-c1ccc(CN2C(=O)CCn3nc(-c4c(Cl)cnn4C(C)C)nc32)cc1F [Example 42] | < 0.1 µM | > 25 min | < 0.1 µM | < 10 µM | < 10 µM | > 25 min
COc1cc(CN2C(=O)CCn3nc(-c4c(OC)ncnc4C(C)C)nc32)ccc1-c1nc(C(F)(F)F)cn1C(C)C [Example 46] | 0.1 to 0.5 µM | > 25 min | 0.1 to 0.5 µM | ≥ 10 µM | ≥ 10 µM | > 25 min
CCn1cc(C(F)(F)F)nc1-c1ccc(CN2c3cc(-c4c(OC)ncnc4C4CC4)nn3CCC2C)cc1F (stereo not drawn) [Example 49] | < 0.1 µM | < 25 min | < 0.1 µM | ≥ 10 µM | < 10 µM | < 25 min
CC1CCn2nc(-c3c(Cl)cnn3C(C)C)cc2N1Cc1ccc(-c2nc(C(F)(F)F)cn2C(C)C)c(F)c1 (stereo not drawn) [Example 50] | < 0.1 µM | < 25 min | < 0.1 µM | < 10 µM | < 10 µM | < 25 min
Cc1cnn(C(C)C)c1-c1cc2n(n1)CCCN2Cc1ccc(-c2nc(C(F)(F)F)nn2C)cc1 [Example 53] | < 0.1 µM | < 25 min | 0.1 to 0.5 µM | < 10 µM | < 10 µM | < 25 min

Further lines, results first:

IC50 (USP1/UAF1 enzyme) | half-life at 1 μM [1] | IC50 [2] | solubility at 24 h [3, 5] | solubility at 24 h [3, 6] | half-life at 1 μM [4] | SMILES
< 0.1 µM | < 25 min | < 0.1 µM | ≥ 10 µM | < 10 µM | < 25 min | COc1ncnc(C2CCC2)c1-c1cc2n(n1)CCC(=O)N2Cc1ccc(-c2nc(C(F)(F)F)cn2C)c(F)c1 [Example 22]
0.1 to 0.5 µM | < 25 min | > 0.5 µM | ≥ 10 µM | ≥ 10 µM | < 25 min | COc1ncnc(C)c1-c1cc2n(n1)CCCN2Cc1ccc(-c2nc(C(F)(F)F)cn2C)cc1 [Example 25]
< 0.1 µM | > 25 min | < 0.1 µM | < 10 µM | < 10 µM | > 25 min | COc1ncnc(C2CC2)c1-c1nn2c(c1Cl)N(Cc1ccc(-c3nc(C(F)(F)F)cn3C)cc1)C(=O)CC2 [Example 33, 3-chloro-2-(4-cyclopropyl-6-methoxypyrimidin-5-yl)-4-(4-(1-methyl-4-(trifluoromethyl)-1H-imidazol-2-yl)benzyl)-6,7-dihydropyrazolo[1,5-α]pyrimidin-5(4H)-one]
< 0.1 µM | < 25 min | < 0.1 µM | < 10 µM | < 10 µM | < 25 min | Cc1cnn(C(C)C)c1-c1nc2n(n1)CCC(=O)N2Cc1ccc(-c2nc(C(F)(F)F)cn2C)cc1 [Example 37, 2-(1-isopropyl-4-methyl-1H-pyrazol-5-yl)-4-(4-(1-methyl-4-(trifluoromethyl)-1H-imidazol-2-yl)benzyl)-6,7-dihydro-[1,2,4]triazolo[1,5-α]pyrimidin-5(4H)-one]
< 0.1 µM | > 25 min | < 0.1 µM | < 10 µM | < 10 µM | > 25 min | CC(C)n1ncc(Cl)c1-c1nc2n(n1)CCC(=O)N2Cc1ccc(-c2nc(C(F)(F)F)cn2C)cc1 [Example 39]
< 0.1 µM | > 25 min | 0.1 to 0.5 µM | ≥ 10 µM | < 10 µM | > 25 min | COc1ncnc(C2CC2)c1-c1nc2n(n1)CCC(=O)N2Cc1ccc(-c2nc(C(F)(F)F)cn2C)cc1 [Example 43]
< 0.1 µM | > 25 min | < 0.1 µM | < 10 µM | < 10 µM | > 25 min | CCn1cc(C(F)(F)F)nc1-c1ccc(CN2C(=O)CCn3nc(-c4c(OC)ncnc4C4CC4)nc32)cc1F [Example 44]
